This is an account of results in ChEMBL document CHEMBL5236664, “Design, synthesis and biological evaluation of KRASG12C-PROTACs” (Bioorg Med Chem, 2023).

Experiment [1] relates to NCI-H358. Description: Antiproliferative activity against human NCI-H358 cells harboring KRAS G12C mutant assessed as inhibition of cell proliferation incubated for 48 hrs by MTT assay. The class given is functional, cell-based. To be noted: NCI-H358, 48 h. A general note: Formazan colour is commonly taken as a measure of viable cells.
The test system of experiment [2] is NCI-H358. Description: Inhibition of ERK phosphorylation in human NCI-H358 cells at 1 to 10 uM incubated for 24 hrs by Western blot analysis. The class given is cell-based. The note with it: dose 1-10 µM.
The subject of experiment [3] is von Hippel-Lindau disease tumor suppressor/GTPase KRas (Homo sapiens), P01116+P40337 [G12C]. Description: Protac activity at VHL/KRAS G12C mutant in human NCI-H358 cells assessed as induction of KRAS G12C protein degradation incubated for 24 hrs by Western blot analysis. The class given is cell-based. To be noted: dose 5-25 µM. For orientation: A western blot detects proteins with antibodies after separation by electrophoresis.

In experiment [4] the test system is MIA PaCa-2. In words: Antiproliferative activity against human MIA PaCa-2 cells harboring KRAS G12C mutant assessed as inhibition of cell proliferation incubated for 48 hrs by MTT assay. Type of experiment: functional, cell-based. The note with it: MIA PaCa-2, 48 h.
Experiment [5] has as its system von Hippel-Lindau disease tumor suppressor/GTPase KRas (Homo sapiens), P01116+P40337 [G12C]. In words: Protac activity at VHL/KRAS G12C mutant in human NCI-H358 cells assessed as induction of KRAS G12C protein degradation at 10 uM incubated for 24 hrs by Western blot analysis. Type of experiment: cell-based.
Experiment [6] has the same test system. Description: Protac activity at VHL/KRAS G12C mutant in human NCI-H358 cells assessed as induction of KRAS G12C protein degradation at 10 uM preincubated for 1 hr with proteasome inhibitor, MG-132 followed by compound addition and measured after 24 hrs by Western blot analysis. The class given is cell-based.
The test system is the same in experiment [7]. Description: Protac activity at VHL/KRAS G12C mutant in human NCI-H358 cells assessed as induction of KRAS G12C protein degradation at 1 uM incubated for 24 hrs by Western blot analysis. The class given is cell-based.
The subject of experiment [8] is GTPase KRas (Homo sapiens), P01116 [G12C]. Description: In vivo target occupancy at KRAS G12C mutant in human MIA PaCa-2 cells xenografted athymic BALB/c nude mouse measured at 30 mins. The class given is functional, cell-based. (In general: In xenograft studies the graft and the host belong to different species.)
The test system of experiment [9] is NCI-H358. In words: Antiproliferative activity against human NCI-H358 cells harboring KRAS G12C mutant assessed as inhibition of cell growth incubated for 5 days by celltiter-glow luminescent cell viability assay. The class given is functional, cell-based. The note with it: NCI-H358, 120 h.
In experiment [10] the test system is MIA PaCa-2. Description: Antiproliferative activity against human MIA PaCa-2 cells harboring KRAS G12C mutant assessed as inhibition of cell growth incubated for 5 days by celltiter-glow luminescent cell viability assay. The class given is functional, cell-based. To be noted: MIA PaCa-2, 120 h.
The subject of experiment [11] is MIA PaCa-2. In words: Antiproliferative activity against human MIA PaCa-2 cells harboring KRAS G12C mutant assessed as inhibition of cell growth. The class given is functional, cell-based.
Experiment [12] relates to NCI-H358. In words: Antiproliferative activity against human NCI-H358 cells harboring KRAS G12C mutant assessed as inhibition of cell growth. The class given is functional, cell-based.
The test system of experiment [13] is Protein cereblon/GTPase KRas (Homo sapiens), P01116+Q96SW2 [G12C]. Description: Protac activity at CRBN/KRAS G12C mutant in human NCI-H358 cells assessed as induction of KRAS G12C protein degradation at 1 uM incubated for 24 hrs by Western blot analysis. Type of experiment: cell-based.
Experiment [14] has the same test system. Description: Protac activity at CRBN/KRAS G12C mutant in human NCI-H358 cells assessed as induction of KRAS G12C protein degradation at 10 uM preincubated for 1 hr with proteasome inhibitor, MG-132 followed by compound addition and measured after 24 hrs by Western blot analysis. Type of experiment: cell-based.
In a further experiment the target is GTPase KRas (Homo sapiens, UniProt P01116, G12C). Description: Induction of KRAS G12C degradation in human MIA PaCa-2 cells assessed as reduction in KRAS G12C protein level incubated for 24 hrs by immunoblotting analysis. The class given is cell-based.

Active and inactive are the calls of the source. No cut-off for these calls is given here. Some results are limits rather than exact numbers.

Chain of GTPase KRas (P01116 whole entry G12C): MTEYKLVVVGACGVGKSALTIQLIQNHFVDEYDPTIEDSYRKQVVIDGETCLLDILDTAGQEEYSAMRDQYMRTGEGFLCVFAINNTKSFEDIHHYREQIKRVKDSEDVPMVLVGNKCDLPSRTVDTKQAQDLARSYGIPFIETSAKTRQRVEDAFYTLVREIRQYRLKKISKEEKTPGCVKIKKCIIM
Chain of GTPase KRas (Homo sapiens), P01116 [G12C] (P01116 whole entry G12C): as above

The IC50 is the concentration needed to halve the response being measured. As to `C=CC(=O)N1CCN(c2nc(=O)n(-c3ccc(C(=O)NCCOCCOCCOCCOCC(=O)N[C@H](C(=O)N4C[C@H](O)C[C@H]4C(=O)NCc4ccc(-c5scnc5C)cc4)C(C)(C)C)cc3C(C)C)c3cc(-c4ccccc4Cl)c(Cl)cc23)[C@@H](C)C1`, the figures for the IC50 in the experiment with NCI-H358 [1] and with MIA PaCa-2 [4] were 11.1 µM and 17.9 µM, respectively. Moreover, in the experiment with NCI-H358 [2], the inhibition result is “Active”. In [3], the Activity entry was “Dose-Dependent Effect”. For the same compound, the outcome in experiment [5] was Active. Also, the outcome in [6] and in experiment [7] was inactive.
Take `C=CC(=O)N1CCN(c2nc(=O)n(-c3ccc(C(=O)O)cc3C(C)C)c3cc(-c4ccccc4Cl)c(Cl)cc23)[C@@H](C)C1`: the half-maximal inhibitory concentration (IC50) in the experiment on NCI-H358 [1] and in the experiment on MIA PaCa-2 [4] was above 10 µM each time.
As for `C=CC(=O)N1CCN(c2nc(=O)n(-c3ccc(C(=O)NCc4cn(CCOCCOCCOCCOCC(=O)N[C@H](C(=O)N5C[C@H](O)C[C@H]5C(=O)NCc5ccc(-c6scnc6C)cc5)C(C)(C)C)nn4)cc3C(C)C)c3cc(-c4ccccc4Cl)c(Cl)cc23)[C@@H](C)C1`, the IC50 with NCI-H358 [1] is 17.1 µM; with MIA PaCa-2 [4] it was 24.3 µM. The inhibition result in the experiment with NCI-H358 [2] was “Active”. In experiment [5], the result was Active. Besides, the outcome in [6] and in [7] was inactive.
On to `C=CC(=O)N1CCN(c2nc(=O)n(-c3ccc(C(=O)NCCCCCC(=O)N[C@H](C(=O)N4C[C@H](O)C[C@H]4C(=O)NCc4ccc(-c5scnc5C)cc4)C(C)(C)C)cc3C(C)C)c3cc(-c4ccccc4Cl)c(Cl)cc23)[C@@H](C)C1`, for which the IC50 stood at 14.2 µM in the experiment on NCI-H358 [1] and 24.2 µM in the experiment on MIA PaCa-2 [4]. In addition, the result in [5] was Active. The outcome in [6] and in experiment [7] was inactive.
In the case of `C=CC(=O)N1CCN(c2ncnc3c(F)c(-c4c(O)cccc4F)c(Cl)cc23)CC1`, the Occ in experiment [8] is above 75%.
Regarding `C=CC(=O)N1CCN(c2nc(NCCCN3CCN(CCCNc4cccc5c4C(=O)N(C4CCC(=O)NC4=O)C5=O)CC3)nc3c(F)c(-c4cc(O)cc5ccccc45)c(Cl)cc23)CC1` (configuration not stated), the IC50 turned out to be 0.51 µM with NCI-H358 [9] and 4.14 µM in the experiment on MIA PaCa-2 [10].
On to `C=CC(=O)N1CCN(c2nc(=O)n(-c3c(C)ccnc3C(C)C)c3nc(-c4c(O)cccc4F)c(F)cc23)[C@@H](C)C1` [SOTORASIB], for which, in the experiment with MIA PaCa-2 [11], the IC50 came to 0.022 µM.
In the case of `C=C(F)C(=O)N1CCN(c2nc(OC[C@@H]3CCCN3C)nc3c2CCN(c2cccc4cccc(Cl)c24)C3)C[C@@H]1CC#N` [ADAGRASIB], the IC50 with NCI-H358 [12] turned out to be 0.001 µM.
With `C=CC(=O)N1CCN(c2nc(=O)n(-c3ccc(C(=O)NCCCC(=O)Nc4cccc5c4CN(C4CCC(=O)NC4=O)C5=O)cc3C(C)C)c3cc(-c4ccccc4Cl)c(Cl)cc23)[C@@H](C)C1` (some centres not stated), the concentration for half-maximal inhibition (IC50) in the experiment with NCI-H358 [1] was determined as 22.7 µM; in the experiment on MIA PaCa-2 [4], 17.1 µM. Further, the outcome in [13] and in experiment [14] was inactive.
The EC50 is the concentration needed to bring the measured effect to its halfway point. For the compound `C=C(F)C(=O)N1CCN(c2nc(OC[C@@H]3CCCN3CCCOCCC(=O)N[C@H](C(=O)N3C[C@H](O)C[C@H]3C(=O)NCc3ccc(-c4scnc4C)cc3)C(C)(C)C)nc3c2CCN(c2cccc4cccc(Cl)c24)C3)C[C@@H]1CC#N`, the EC50 at GTPase KRas is 0.32 µM.
Regarding `C=CC(=O)N1CCN(c2nc(=O)n(-c3ccccc3C(C)C)c3cc(-c4ccccc4Cl)c(Cl)cc23)[C@@H](C)C1`, the IC50 stood at 1.48 µM with NCI-H358 [1] and 0.77 µM with MIA PaCa-2 [4].
